Experimental findings from patent publication US20250136614A1, “2,7-SUBSTITUTED PYRROLO[2,1-F][1,2,4]TRIAZINE COMPOUND HAVING PROTEIN KINASE INHIBITORY ACTIVITY” (Magicbullettherapeutics Co., Ltd., priority 2021, published 2025) are described below.

Common to all, as to experiment: Ba/F3 cell growth inhibition (CellTiter-Glo, 72 hours)
Assay type in all cases: cell-based

For one test, the target named is T1, Ba/F3 FLT3 (ITD) (Homo sapiens, UniProt P36888, cells depend on it, form not given).
T1 sequence (P36888 1-993): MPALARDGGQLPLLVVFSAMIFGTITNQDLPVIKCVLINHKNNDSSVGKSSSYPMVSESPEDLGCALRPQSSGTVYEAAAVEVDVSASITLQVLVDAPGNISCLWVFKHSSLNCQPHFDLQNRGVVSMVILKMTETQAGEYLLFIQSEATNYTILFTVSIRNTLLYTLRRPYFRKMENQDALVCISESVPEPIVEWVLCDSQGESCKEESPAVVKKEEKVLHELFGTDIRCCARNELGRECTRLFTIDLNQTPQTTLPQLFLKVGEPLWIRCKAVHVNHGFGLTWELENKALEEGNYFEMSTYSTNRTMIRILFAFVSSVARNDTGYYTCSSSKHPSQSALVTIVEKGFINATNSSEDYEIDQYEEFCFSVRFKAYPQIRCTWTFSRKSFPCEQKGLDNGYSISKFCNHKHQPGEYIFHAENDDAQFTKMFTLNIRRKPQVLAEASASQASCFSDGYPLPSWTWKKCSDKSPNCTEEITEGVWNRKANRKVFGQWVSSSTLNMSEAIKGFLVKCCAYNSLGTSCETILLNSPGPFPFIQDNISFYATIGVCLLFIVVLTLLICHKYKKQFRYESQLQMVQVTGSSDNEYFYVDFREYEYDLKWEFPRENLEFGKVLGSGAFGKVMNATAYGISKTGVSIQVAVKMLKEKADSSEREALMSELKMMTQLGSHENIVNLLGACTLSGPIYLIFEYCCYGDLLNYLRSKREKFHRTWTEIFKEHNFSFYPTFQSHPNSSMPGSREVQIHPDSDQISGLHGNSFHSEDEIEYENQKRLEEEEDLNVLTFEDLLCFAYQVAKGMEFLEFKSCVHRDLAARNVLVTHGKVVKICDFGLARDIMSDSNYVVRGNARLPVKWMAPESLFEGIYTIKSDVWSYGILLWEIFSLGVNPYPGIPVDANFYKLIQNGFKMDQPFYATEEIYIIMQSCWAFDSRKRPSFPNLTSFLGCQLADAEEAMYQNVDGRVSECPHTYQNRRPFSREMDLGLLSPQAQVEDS
The conditions noted are these: read-out: Ba/F3 GI50s (μM) FLT3 (ITD). How it is done:
(§1) Seeding 3000 cells per well in a 96-well plate. After cell stabilization, treat the cells with compounds diluted in […] at a ⅓ serial dilution and culture for 72 hours. Following treatment with CellTiter-Glo, luminescence is produced only in the presence of ATP, as luciferase degrades luciferin. Luminescence values were measured using Envision (PerkinElmer). Based on the measured luminescence values, the concentration of compounds causing cell death was calculated to determine the GI50 value.
(§2) The activity values were categorized into three levels. • A: IC50<1 μM • B: 1 μM≤IC50<10 μM, • C: IC50≥10 μM

The next test addresses T2, Ba/F3 FLT3 (ITD/D835Y) (Homo sapiens, UniProt P36888, D835Y, cells depend on it, form not given).
T2 sequence (P36888 1-993 D835Y): T1 sequence (P36888 1-993) with D835Y
The conditions noted are these: read-out: Ba/F3 GI50s (μM) FLT3 (ITD/D835Y). How it is done:
as §1, §2

The test system of a further test is Ba/F3 parental. The conditions noted are these: Mus musculus, BaF3, Ba/F3 parental cells, read-out: Ba/F3 GI50s (μM) parental. The procedure:
as §1, §2

Structures are written as SMILES. Residue numbers refer to the chain shown, from its start.

Regarding `O=C1CCCCCCOc2ccc(cc2F)-c2ccc3cnc(nn23)Nc2ccc(cc2)OCCCN1` [Example 20, (Z)-13-fluoro-5,17-dioxa-3,9-diaza-2(7,2)-pyrrolo[2,1-f][1,2,4]triazina-1,4(1,4)-dibenzenacycloheptadecaphan-10-one], the GI50 at Ba/F3 FLT3 (ITD) and on Ba/F3 FLT3 (ITD/D835Y) was 1 to 10 µM each time. Further, in the test with Ba/F3 parental, the IC50 was not below 10 µM.
On to `CS(=O)(=O)Nc1cccc(-c2ccc3cnc(Nc4ccc(N5CCN(CCCCCCCOc6cccc7c6C(=O)N(C6CCC(=O)NC6=O)C7=O)CC5)cc4)nn23)c1` (stereo not drawn) [Example 41], for which the GI50 is less than 1 µM on Ba/F3 FLT3 (ITD) and 1 to 10 µM at Ba/F3 FLT3 (ITD/D835Y). The IC50 with Ba/F3 parental fell in the range of 1 to 10 µM.
For the compound `O=C1CCCCCCOc2ccc(cc2)-c2ccc3cnc(nn23)Nc2ccc(cc2)OCCCN1` [Example 29, (Z)-5,17-dioxa-3,9-diaza-2(7,2)-pyrrolo[2,1-f][1,2,4]triazina-1,4(1,4)-dibenzenacycloheptadecaphan-10-one], the results for the GI50 on Ba/F3 FLT3 (ITD) and on Ba/F3 FLT3 (ITD/D835Y) were less than 1 µM and 1 to 10 µM, respectively. In addition, in the test on Ba/F3 parental, the IC50 is not below 10 µM.
`O=C1COCCOc2ccc(cc2)-c2ccc3cnc(nn23)Nc2cnn(c2)CCCN1` [Example 35, (2^1Z,4^4E)-4^1H-11,14-dioxa-3,8-diaza-2(7,2)-pyrrolo[2,1-f1][1,2,4]triazina-4(4,1)-pyrazola-1(1,4)-benzenacyclotetradecaphan-9-one]: the GI50 on Ba/F3 FLT3 (ITD) and at Ba/F3 FLT3 (ITD/D835Y) was less than 1 µM each time. In addition, in the test on Ba/F3 parental, the IC50 is 1 to 10 µM.
Turning to `O=C1CCCCOc2ccc(cc2)-c2ccc3cnc(nn23)Nc2ccc(cc2)OCCCN1` [Example 38, (Z)-5,15-dioxa-3,9-diaza-2(7,2)-pyrrolo[2,1-f][1,2,4]triazina-1,4(1,4)-dibenzenacyclopentadecaphan-10-one], the GI50 at Ba/F3 FLT3 (ITD) and at Ba/F3 FLT3 (ITD/D835Y) was less than 1 µM each time. Moreover, in the test with Ba/F3 parental, the IC50 was not below 10 µM.
With `CS(=O)(=O)Nc1cccc(-c2ccc3cnc(Nc4ccc(N5CCN(CCCCCOc6cccc7c6C(=O)N(C6CCC(=O)NC6=O)C7=O)CC5)cc4)nn23)c1` (stereo not drawn) [Example 39], the GI50 at Ba/F3 FLT3 (ITD) and on Ba/F3 FLT3 (ITD/D835Y) was not below 10 µM throughout. Moreover, in the test with Ba/F3 parental, the IC50 was not below 10 µM.
Regarding `CS(=O)(=O)N1CCCn2cc(cn2)Nc2ncc3ccc(n3n2)-c2ccc(cc2)OCC1` [Example 9, (2^1Z,4^4E)-8-(methylsulfonyl)-4^1H-11-oxa-3,8-diaza-2(7,2)-pyrrolo[2,1-f][1,2,4]triazina-4(4,1)-pyrazola-1(1,4)-benzenecycloundecaphane], the GI50 at Ba/F3 FLT3 (ITD) and on Ba/F3 FLT3 (ITD/D835Y) was less than 1 µM each time. Besides, the IC50 in the test on Ba/F3 parental lay in the range of 1 to 10 µM.
As to `O=C1CCCCOc2ccc(cc2)-c2ccc3cnc(nn23)Nc2cnn(c2)C2CCN(CCCN1)CC2` [Example 26, (2^1Z,4^4E)-4^1H-15-oxa-3,9-diaza-2(7,2)-pyrrolo[2,1-f1][1,2,4]triazina-5(4,1)-piperidina-4(4,1)-pyrazola-1(1,4)-benzenacyclopentadecaphan-10-one], the GI50 at Ba/F3 FLT3 (ITD) and on Ba/F3 FLT3 (ITD/D835Y) was less than 1 µM each time. Also, the IC50 with Ba/F3 parental was not below 10 µM.
As to `CC(=O)N1CCCn2cc(cn2)Nc2ncc3ccc(n3n2)-c2ccc(cc2)OCC1` [Example 3, 1-((2^1Z,4^4E)-4^1H-11-oxa-3,8-diaza-2(7,2)-pyrrolo[2,1-f1][1,2,4]triazina-4(4,1)-pyrazola-1(1,4)-benzenacycloundecaphane-8-yl)ethan-1-one], the GI50 at Ba/F3 FLT3 (ITD) and on Ba/F3 FLT3 (ITD/D835Y) was less than 1 µM in each case. For the same compound, in the test on Ba/F3 parental, the IC50 was 1 to 10 µM.
For `c1cc2ccc1Nc1ncc3ccc(n3n1)-c1ccc(cc1)OCCNCCCO2` [Example 30, (Z)-5,12-dioxa-3,9-diaza-2(7,2)-pyrrolo[2,1-f][1,2,4]triazina-1,4(1,4)-dibenzenacyclododecaphane], the GI50 at Ba/F3 FLT3 (ITD) and on Ba/F3 FLT3 (ITD/D835Y) was less than 1 µM each time. Besides, the IC50 in the test with Ba/F3 parental is not below 10 µM.
With `O=C1CCCCOc2ccc(cc2)-c2ccc3cnc(nn23)Nc2cnn(c2)C2CCN1CC2` [Example 25, (2^1Z,4^4E)-4^1H-11-oxa-3-aza-2(7,2)-pyrrolo[2,1-f][1,2,4]triazina-5(4,1)-piperidina-4(4,1)-pyrazola-1(1,4)-benzenacycloundecaphan-6-one], the GI50 at Ba/F3 FLT3 (ITD) and on Ba/F3 FLT3 (ITD/D835Y) was less than 1 µM each time. Also, the IC50 in the test on Ba/F3 parental was not below 10 µM.
Turning to `CN1CCCn2cc(cn2)Nc2ncc3ccc(n3n2)-c2ccc(cc2)OCC1` [Example 2], the GI50 at Ba/F3 FLT3 (ITD) and on Ba/F3 FLT3 (ITD/D835Y) was less than 1 µM throughout. In the test on Ba/F3 parental, the IC50 is 1 to 10 µM.
On to `O=C1CCCCCCOc2ccc(cc2)-c2ccc3cnc(nn23)Nc2cnn(c2)CCCN1` [Example 37, (2^1Z,4^4E)-4^1H-16-oxa-3,8-diaza-2(7,2)-pyrrolo[2,1-f1][1,2,4]triazina-4(4,1)-pyrazola-1(1,4)-benzenacyclohexadecaphan-9-one], for which the GI50 on Ba/F3 FLT3 (ITD) and at Ba/F3 FLT3 (ITD/D835Y) was less than 1 µM throughout. Besides, the IC50 in the test with Ba/F3 parental is not below 10 µM.
As to `O=C1COCCOc2ccc(cc2)-c2ccc3cnc(nn23)Nc2ccc(cc2)OCCCN1` [Example 28, (Z)-5,12,15-trioxa-3,9-diaza-2(7,2)-pyrrolo[2,1-f][1,2,4]triazina-1,4(1,4)-dibenzenacyclopentadecaphan-10-one], the GI50 at Ba/F3 FLT3 (ITD) and at Ba/F3 FLT3 (ITD/D835Y) was less than 1 µM throughout. In the test on Ba/F3 parental, the IC50 is less than 1 µM.
With `Cc1ncsc1-c1ccc(CNC(=O)[C@@H]2C[C@@H](O)CN2C(=O)[C@@H](NC(=O)CCOCCOCCN2CCN(c3ccc(Nc4ncc5ccc(-c6cccc(NS(C)(=O)=O)c6)n5n4)cc3)CC2)C(C)(C)C)cc1` [Example 84, (2S,4R)-1-((S)-3,3-dimethyl-2-(3-(2-(2-(4-(4-((7-(3-(methanesulfonamido)phenyl)pyrrolo[2,1-f][1,2,4]triazin-2-yl)amino)phenyl)piperazin-1-yl)ethoxy)ethoxy)propanamido)butanoyl)-4-hydroxy-N-(4-(4-methylthiazol-5-yl)benzyl)pyrrolidin-2-carboxamide], the GI50 on Ba/F3 FLT3 (ITD) was 1 to 10 µM; on Ba/F3 FLT3 (ITD/D835Y) it was less than 1 µM. For the same compound, the IC50 in the test on Ba/F3 parental was 1 to 10 µM.
Regarding `O=C1CCCCOc2ccc(cc2)-c2ccc3cnc(nn23)Nc2cnn(c2)CCCN1` [Example 36, (2^1Z,4^4E)-4^1H-14-oxa-3,8-diaza-2(7,2)-pyrrolo[2,1-f][1,2,4]triazina-4(4,1)-pyrazola-1(1,4)-benzenacyclotetradecaphan-9-one], the GI50 at Ba/F3 FLT3 (ITD) and at Ba/F3 FLT3 (ITD/D835Y) was less than 1 µM each time. Also, the IC50 with Ba/F3 parental fell in the range of 1 to 10 µM.
